In brackets after ≈: the same amount, converted by molar mass. Where a SMILES comes first, the peptide text is derived from it.
Tests used:
A(H1N1)pdm09 virus [1] = system: A(H1N1)pdm09 virus
SARS-CoV [2] = system: SARS-CoV
H1N1 HA1 protein = H1N1 HA1 protein (Influenza A virus, UniProt C3W5S1)
SARS-CoV-2 [3] = system: SARS-CoV-2
MERS-CoV S protein = MERS-CoV S protein (Middle East respiratory syndrome-related coronavirus, UniProt K9N5Q8)
[4] = system: endosomal acidification in MDCK cells; type: cell-based, canine
MERS-CoV [5] = system: MERS-CoV
A(H1N1)pdm09 virus [6] = type: binding
SARS-CoV [7] = type: binding
A(H1N1)pdm09 virus [8] = type: cell-based
A(H7N9) virus [9] = system: A(H7N9) virus
[10] = system: A(H1N1)pdm09 virus RNP release in MDCK cells
SARS-CoV-2 [11] = type: binding
rhinovirus [12] = type: binding; settings: peptide coated on ELISA plate, bound virus by RT-qPCR
MERS-CoV [13] = system: MERS-CoV; remark: listed apart in the source
rhinovirus [14] = system: rhinovirus
rhinovirus [15] = system: rhinovirus; remark: listed apart in the source
MERS-CoV [16] = type: binding
A(H7N9) virus [17] = system: A(H7N9) virus; remark: listed apart in the source
A(H7N9) virus [18] = type: binding
SARS-CoV-2 [19] = system: SARS-CoV-2; remark: listed apart in the source
[20] = system: virus-host endosomal acidification; type: cell-based

Sequence of MERS-CoV S protein (K9N5Q8 18-1353 limits assumed): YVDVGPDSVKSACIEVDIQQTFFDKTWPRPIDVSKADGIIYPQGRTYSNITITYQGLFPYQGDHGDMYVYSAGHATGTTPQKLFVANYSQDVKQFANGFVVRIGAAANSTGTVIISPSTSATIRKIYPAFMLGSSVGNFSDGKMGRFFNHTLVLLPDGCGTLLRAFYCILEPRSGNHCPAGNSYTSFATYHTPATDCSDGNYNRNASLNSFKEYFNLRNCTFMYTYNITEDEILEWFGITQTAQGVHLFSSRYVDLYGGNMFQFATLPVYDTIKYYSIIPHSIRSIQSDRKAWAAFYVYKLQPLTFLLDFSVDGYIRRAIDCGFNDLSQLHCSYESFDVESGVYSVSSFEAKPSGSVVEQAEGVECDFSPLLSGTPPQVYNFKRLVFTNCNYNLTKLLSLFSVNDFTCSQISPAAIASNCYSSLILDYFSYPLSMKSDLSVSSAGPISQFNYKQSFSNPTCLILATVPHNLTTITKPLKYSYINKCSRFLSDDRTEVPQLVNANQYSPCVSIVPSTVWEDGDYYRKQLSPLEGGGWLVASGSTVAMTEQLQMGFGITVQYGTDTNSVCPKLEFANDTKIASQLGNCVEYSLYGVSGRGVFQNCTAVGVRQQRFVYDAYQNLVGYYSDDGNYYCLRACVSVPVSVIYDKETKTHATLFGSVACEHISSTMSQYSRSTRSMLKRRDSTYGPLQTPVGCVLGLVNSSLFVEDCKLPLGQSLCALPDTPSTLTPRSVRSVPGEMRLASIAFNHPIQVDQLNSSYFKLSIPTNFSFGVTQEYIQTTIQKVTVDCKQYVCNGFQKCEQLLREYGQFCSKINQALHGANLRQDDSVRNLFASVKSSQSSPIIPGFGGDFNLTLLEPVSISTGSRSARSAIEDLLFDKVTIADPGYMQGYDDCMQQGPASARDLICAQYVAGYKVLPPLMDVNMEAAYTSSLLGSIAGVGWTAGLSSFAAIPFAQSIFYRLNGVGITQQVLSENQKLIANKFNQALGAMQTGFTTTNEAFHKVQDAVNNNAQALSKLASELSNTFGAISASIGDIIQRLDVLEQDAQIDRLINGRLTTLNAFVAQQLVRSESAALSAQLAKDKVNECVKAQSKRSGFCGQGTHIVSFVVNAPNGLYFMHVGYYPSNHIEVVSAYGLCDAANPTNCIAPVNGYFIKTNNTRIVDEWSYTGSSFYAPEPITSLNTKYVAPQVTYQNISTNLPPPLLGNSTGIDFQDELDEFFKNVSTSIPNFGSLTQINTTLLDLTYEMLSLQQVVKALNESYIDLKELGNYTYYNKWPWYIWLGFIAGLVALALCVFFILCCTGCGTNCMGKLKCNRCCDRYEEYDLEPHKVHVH
Sequence of H1N1 HA1 protein (C3W5S1 18-344 limits assumed): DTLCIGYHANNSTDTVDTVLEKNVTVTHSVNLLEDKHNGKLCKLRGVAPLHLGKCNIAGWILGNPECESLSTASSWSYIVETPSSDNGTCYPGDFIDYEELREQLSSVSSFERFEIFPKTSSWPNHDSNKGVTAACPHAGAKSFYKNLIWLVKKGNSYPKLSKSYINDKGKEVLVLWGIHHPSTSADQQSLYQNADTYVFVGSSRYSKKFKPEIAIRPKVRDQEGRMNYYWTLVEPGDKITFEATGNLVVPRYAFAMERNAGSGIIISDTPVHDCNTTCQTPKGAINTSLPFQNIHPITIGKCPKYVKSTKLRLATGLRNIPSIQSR

## CC[C@H](C)[C@H](NC(=O)[C@H](C)NC(=O)CNC(=O)[C@@H](N)CC(N)=O)C(=O)N[C@@H](CS)C(=O)N[C@@H](Cc1c[nH]c2ccccc12)C(=O)NCC(=O)N1CCC[C@H]1C(=O)N[C@@H](CS)C(=O)N1CCC[C@H]1C(=O)N[C@H](C(=O)N[C@@H](C)C(=O)N[C@@H](Cc1ccccc1)C(=O)N[C@@H](CCCNC(=N)N)C(=O)N[C@@H](CCC(N)=O)C(=O)N[C@H](C(=O)NCC(=O)N[C@@H](CC(N)=O)C(=O)N[C@@H](CS)C(=O)NCC(=O)N[C@@H](CCCNC(=N)N)C(=O)N[C@@H](Cc1ccccc1)C(=O)N[C@@H](CCCNC(=N)N)C(=O)N[C@H](C(=O)N[C@@H](CCCNC(=N)N)C(=O)N[C@@H](CS)C(=O)N[C@@H](CS)C(=O)N[C@@H](CCCNC(=N)N)C(=O)N[C@H](C(=O)N[C@@H](CCCNC(=N)N)C(=O)O)[C@@H](C)CC)C(C)C)[C@@H](C)CC)[C@@H](C)O [P9R] (H-NGAICWGPCPTAFRQIGNCGRFRVRCCRIR-OH)
A(H1N1)pdm09 virus [1]
  inhibition of viral replication (viral RNA copies in supernatants): > 20 fold
SARS-CoV [2]
  inhibition of viral replication (viral RNA copies in supernatants): 1000 fold
H1N1 HA1 protein
  binding to viral protein H1N1 HA1: could also bind
SARS-CoV-2 [3]
  inhibition of viral replication (viral RNA copies in supernatants): 1000 fold
MERS-CoV S protein
  binding to viral protein MERS-CoV S: could also bind
[4]
  inhibition of endosomal acidification in live cells: could more significantly inhibit endosomal acidification
MERS-CoV [5]
  inhibition against MERS-CoV compared with P9: significantly stronger inhibition
A(H1N1)pdm09 virus [6]
  binding to A(H1N1)pdm09 virus: could efficiently bind
SARS-CoV [7]
  binding to SARS-CoV: could also bind
A(H1N1)pdm09 virus [8]
  inhibition against A(H1N1)pdm09 virus compared with P9: significantly stronger inhibition
A(H7N9) virus [9]
  inhibition against A(H7N9) virus compared with P9: significantly stronger inhibition
[10]
  inhibition of viral RNP release into nuclei: could inhibit viral RNP release into nuclei
SARS-CoV-2 [11]
  binding to SARS-CoV-2: could efficiently bind
Parainfluenza virus 3
  IC50 against parainfluenza virus 3: > 25.0 µg/mL
Rhinovirus [12]
  binding to rhinovirus: could also bind
MERS-CoV [13]
  inhibition of viral replication (viral RNA copies in supernatants): 1000 fold
Rhinovirus [14]
  inhibition against rhinovirus compared with P9: significantly stronger inhibition
Rhinovirus [15]
  inhibition of viral replication (viral RNA copies in supernatants): > 20 fold
MERS-CoV [16]
  binding to MERS-CoV: could also bind
A(H7N9) virus [17]
  inhibition of viral replication (viral RNA copies in supernatants): > 20 fold
A(H7N9) virus [18]
  binding to A(H7N9) virus: could also bind
SARS-CoV-2 [19]
  IC50 against SARS-CoV-2: 0.9 µg/mL (≈ 0.264 µM)
[20]
  inhibition of virus-host endosomal acidification: could efficiently inhibit the virus-host endosomal acidification

## CO/C1=C\C(C)=C\[C@@H](C)[C@@H](O)[C@@H](C)C/C(C)=C/C=C/[C@H](OC)[C@@H]([C@@H](C)[C@@H](O)[C@H](C)[C@@]2(O)C[C@@H](O)[C@H](C)[C@@H](C(C)C)O2)OC1=O [bafilomycin A1, reference compound]
[20]
  inhibition of virus-host endosomal acidification: could efficiently inhibit the virus-host endosomal acidification

## CC[C@H](C)[C@H](NC(=O)[C@H](C)NC(=O)CNC(=O)[C@@H](N)CC(N)=O)C(=O)N[C@@H](CS)C(=O)N[C@@H](Cc1c[nH]c2ccccc12)C(=O)NCC(=O)N1CCC[C@H]1C(=O)N[C@@H](CS)C(=O)N1CCC[C@H]1C(=O)N[C@H](C(=O)N[C@@H](C)C(=O)N[C@@H](Cc1ccccc1)C(=O)N[C@@H](CCCNC(=N)N)C(=O)N[C@@H](CCC(N)=O)C(=O)N[C@H](C(=O)NCC(=O)N[C@@H](CC(N)=O)C(=O)N[C@@H](CS)C(=O)NCC(=O)N[C@@H](Cc1c[nH]cn1)C(=O)N[C@@H](Cc1ccccc1)C(=O)N[C@@H](CCCCN)C(=O)N[C@H](C(=O)N[C@@H](CCCNC(=N)N)C(=O)N[C@@H](CS)C(=O)N[C@@H](CS)C(=O)N[C@@H](CCCCN)C(=O)N[C@H](C(=O)N[C@@H](CCCNC(=N)N)C(=O)O)[C@@H](C)CC)C(C)C)[C@@H](C)CC)[C@@H](C)O [P9, reference compound]
Parainfluenza virus 3
  IC50 against parainfluenza virus 3: > 25.0 µg/mL
SARS-CoV-2 [19]
  IC50 against SARS-CoV-2: 2.4 µg/mL (≈ 0.719 µM)

Reference: patent publication US12472231B2 (priority 2020, dated 2025)
